Laboratory results as given in publication PMC9995496, “A screen for MeCP2-TBL1 interaction inhibitors using a luminescence-based assay” (Scientific Reports, 2023).
Counter-ions that a name gives are not always drawn.

system: PRKACA-PRKAR2A interaction (SmBiT-PRKACA / LgBiT-PRKAR2A), protein kinase A; set-up: NanoLuc complementation counter-screen in cell extract, PRKACA with PRKAR2A, loss of luminescence, detects NanoLuc interference; conditions: counter-screen for NanoLuc interference, 0.5 h, 20 µM, inhibitor, Inh (PKA)

Row | Inh (PKA) [%] | Compound
1 | 4.293 | CCCCCCOC(=O)NC(=N)c1ccc(NCc2nc3cc(C(=O)N(CCC(=O)OCC)c4ccccn4)ccc3n2C)cc1 [UM0142023:01, BIBR-1048]
2 | 16.9 | CN1CCN(c2ccc3nc(-c4c(N)c5c(F)cccc5[nH]c4=O)[nH]c3c2)CC1 [UM0142034:01, Dovitinib Dilactic acid]
3 | 1.035 | C[C@H]1c2cccc(O)c2C(=O)C2=C(O)[C@]3(O)C(=O)C(C(N)=O)=C(O)[C@@H](N(C)C)[C@@H]3[C@@H](O)[C@@H]21 [UM0142036:01, Doxycycline HCl]
4 | -0.03613 | Nc1ccn([C@@H]2O[C@H](CO)[C@@H](O)C2(F)F)c(=O)n1 [UM0142041:01, Gemcitabine]
5 | 54.73 | COc1cc(Nc2ncc(F)c(Nc3ccc4c(n3)NC(=O)C(C)(C)O4)n2)cc(OC)c1OC [UM0142079:01, R406]

Row | Compound | Inh (PKA) [%]
6 | CCN(C)C(=O)Oc1cccc([C@H](C)N(C)C)c1 [UM0142069:01, Rivastigmine Tartrate] | 1.4

same assay, conditions: counter-screen for NanoLuc interference; 0.5 h, 20 µM; inhibitor

Row | Inh (PKA) [%] | Compound
7 | 7.565 | CNC(=O)c1cccc(-c2ccc3c(N4CCOC[C@@H]4C)nc(N4CCOC[C@@H]4C)nc3n2)c1 [UM0142021:01, AZD2014]
8 | 6.017 | CNC(=O)CN1CCC(Oc2cc3c(Nc4cccc(Cl)c4F)ncnc3cc2OC)CC1 [UM0142022:01, AZD8931 (Sapitinib)]
9 | 6.004 | CCCCOc1c(C(=O)c2c(F)cc(C)cc2F)c[nH]c2nncc1-2 [UM0142024:01, BMS265246]
10 | 80.31 | Nc1nc(NCCNc2ncc(-n3ccnc3)c(-c3ccc(Cl)cc3Cl)n2)ccc1[N+](=O)[O-] [UM0142026:01, CHIR-98014]
11 | 53.3 | CN(C)C(=O)[C@H](O)[C@H](Cc1ccccc1)NC(=O)c1cc2cc(Cl)ccc2[nH]1 [UM0142029:01, CP-91149]
12 | -1.093 | O=c1[nH]cnc2c1ncn2[C@H]1CC[C@@H](CO)O1 [UM0142031:01, Didanosine]
13 | 1.224 | CCc1cnn2c(NCc3ccc[n+]([O-])c3)cc(N3CCCC[C@H]3CCO)nc12 [UM0142032:01, Dinaciclib (SCH727965)]
14 | -0.1542 | CN(CCOc1ccc(NS(C)(=O)=O)cc1)CCc1ccc(NS(C)(=O)=O)cc1 [UM0142033:01, Dofetilide]
15 | 1.453 | CCN1CC(CCN2CCOCC2)C(c2ccccc2)(c2ccccc2)C1=O (centres unmarked) [UM0142035:01, Doxapram HCl]
16 | -0.284 | Nc1nc(=O)n([C@@H]2CS[C@H](CO)O2)cc1F [UM0142037:01, Emtricitabine]
17 | 7.468 | C[C@]12CC[C@@H]3c4ccc(O)cc4CC[C@H]3[C@@H]1CCC2=O [UM0142038:01, Estrone]
18 | 29.66 | O=C1[C@H](CC[C@H](O)c2ccc(F)cc2)[C@@H](c2ccc(O)cc2)N1c1ccc(F)cc1 [UM0142039:01, Ezetimibe]
19 | 28.61 | CC(C(=O)O)c1ccc(-c2ccccc2)c(F)c1 (centres unmarked) [UM0142040:01, Flurbiprofen]
20 | 2.417 | CC(C)c1noc(N2CCC(COc3ccc(-c4ccc(S(C)(=O)=O)cc4)nc3)CC2)n1 [UM0142042:01, GSK1292263]
21 | 3.955 | CNC(=O)c1c(F)cccc1Nc1nc(Nc2cc3c(ccn3C(=O)CN(C)C)cc2OC)nc2[nH]ccc12 [UM0142043:01, GSK1838705A]
22 | 20.75 | O=C(O)Cc1cccc(OCCCN(Cc2cccc(C(F)(F)F)c2Cl)CC(c2ccccc2)c2ccccc2)c1 [UM0142045:01, GW3965 HCl]
23 | 3.005 | CC(C)Cc1ccc(C(C)C(=O)O)cc1 (centres unmarked) [UM0142046:01, Ibuprofen]
24 | 2.302 | CCOC(=O)[C@H](CCc1ccccc1)N[C@@H](C)C(=O)N1C(=O)N(C)C[C@H]1C(=O)O [UM0142047:01, Imidapril HCl]
25 | 6.016 | CNC(=O)c1ccc(-c2cnc3ncc(Cc4ccc5ncccc5c4)n3n2)cc1F [UM0142048:01, INCB28060]
26 | 2.703 | CC(O)c1cc(C(=O)N[C@@H](C)Cn2ccc(-c3ccc(C#N)c(Cl)c3)n2)n[nH]1 (some centres unmarked) [UM0142049:01, ODM-201]
27 | 94.06 | COC(=O)C1=C(C)NC(C)=C(C(=O)OC(C)C)C1c1cccc2nonc12 (centres unmarked) [UM0142050:01, Isradipine (Dynacirc)]
28 | 88.81 | COC(=O)C1=C(C#N)NC(C)=C(C(=O)OC(C)C)C1c1cccc([N+](=O)[O-])c1 (centres unmarked) [UM0142051:01, Nilvadipine]
29 | -0.4847 | Nc1ccn([C@@H]2CS[C@H](CO)O2)c(=O)n1 [UM0142052:01, Lamivudine]
30 | 1.122 | CCN(C(=O)c1c(O)c2c(Cl)cccc2n(C)c1=O)c1ccccc1 [UM0142053:01, Laquinimod (ABR-215062)]
31 | -0.08675 | c1ccc(-c2nn3c(c2-c2ccnc4cc(OCCN5CCOCC5)ccc24)CCC3)nc1 [UM0142054:01, LY2109761]
32 | 5.898 | NC1=N[C@@]2(c3cc(NC(=O)c4ccc(F)cn4)ccc3F)COC[C@H]2CS1 [UM0142055:01, LY2886721]
33 | 3.158 | Nc1nc(CC(=O)Nc2ccc(CCNC[C@H](O)c3ccccc3)cc2)cs1 [UM0142057:01, Mirabegron (YM178)]
34 | 13.67 | CN(C[C@@H]1COCCO1)S(=O)(=O)Nc1ccc2ccc3ncc(-c4cnn(C)c4)cc3c(=O)c2c1 [UM0142058:01, MK-2461]

Row | Inh (PKA) [%] | Compound
35 | 4.838 | Cn1cc(-c2cnn3c(N)c(Br)c([C@@H]4CCCNC4)nc23)cn1 [UM0142059:01, MK-8776 (SCH-900776)]
36 | 3.121 | Cc1ccnc2c1NC(=O)c1cccnc1N2C1CC1 [UM0142060:01, Nevirapine]
37 | 89.11 | COCCOC(=O)C1=C(C)NC(C)=C(C(=O)OC(C)C)C1c1cccc([N+](=O)[O-])c1 (centres unmarked) [UM0142061:01, Nimodipine]
38 | 19.52 | COc1ccc(-c2ccc3ncc4c(c3c2)n(-c2ccc(N3CCNCC3)c(C(F)(F)F)c2)c(=O)n4C)cn1 [UM0142062:01, NVP-BGT226]
39 | 13.19 | Cn1cc(-c2ccc3ncc(Cc4ccc5ncccc5c4)n3n2)cn1 [UM0142063:01, NVP-BVU972]
40 | 7.804 | COc1ccc(-c2cc3c(C)nc(N)nc3n([C@H]3CC[C@H](OCCO)CC3)c2=O)cn1 [UM0142064:01, PF-04691502]
41 | 8.149 | CNC(=O)c1nn(C)c2c1C(C)(C)Cc1cnc(Nc3ccc(N4CCN(C)CC4)cc3)nc1-2 [UM0142065:01, PHA-848125]
42 | 41.78 | O=C(O)C[C@H](O)C[C@H](O)/C=C/c1c(C2CC2)nc2ccccc2c1-c1ccc(F)cc1 [UM0142066:01, Pitavastatin Calcium]
43 | 0.4885 | CCn1nnc2c(N3CCOCC3)nc(-c3ccc(NC(=O)Nc4ccc(C(=O)N5CCN(C)CC5)cc4)cc3)nc21 [UM0142067:01, PKI-402]
44 | 35.34 | CO[C@H]1/C=C/O[C@@]2(C)Oc3c(C)c(O)c4c(O)c(c5c(nc6cc(C)ccn65)c4c3C2=O)NC(=O)/C(C)=C\C=C\[C@H](C)[C@H](O)[C@@H](C)[C@@H](O)[C@@H](C)[C@H](OC(C)=O)[C@@H]1C [UM0142068:01, Rifaximin (Xifaxan)]
45 | 4.68 | CC(C)c1nc(N(C)S(C)(=O)=O)nc(-c2ccc(F)cc2)c1/C=C/[C@@H](O)C[C@@H](O)CC(=O)O [UM0142070:01, Rosuvastatin Calcium]
46 | 65.03 | CN1CCN(c2nc(C3=C(c4c[nH]c5ccccc45)C(=O)NC3=O)c3ccccc3n2)CC1 [UM0142072:01, Sotrastaurin (AEB071)]
47 | 28.39 | CC(C)(O)CC(=O)NCCn1ccc2ncnc(Nc3ccc(Oc4cccc(C(F)(F)F)c4)c(Cl)c3)c21 [UM0142073:01, TAK-285]
48 | -0.434 | Cc1cn([C@@H]2C[C@@H](O)[C@H](CO)O2)c(=O)[nH]c1=O [UM0142074:01, Telbivudine]
49 | 6.975 | COc1cc([C@@H]2c3cc4c(cc3[C@@H](O[C@@H]3O[C@@H]5CO[C@@H](c6cccs6)O[C@H]5[C@H](O)[C@H]3O)[C@H]3COC(=O)[C@H]23)OCO4)cc(OC)c1O [UM0142075:01, Teniposide]
50 | 11.27 | CSc1ccc2c(c1)N(CCC1CCCCN1C)c1ccccc1S2 (centres unmarked) [UM0142076:01, Thioridazine HCl]
51 | 2.454 | CN1CCc2c(c3ccccc3n2Cc2ccc(C(=O)NO)cc2)C1 [UM0142080:01, Tubastatin A HCl]
52 | 6.851 | CCCCCCCCc1ccc(CCC(N)(CO)CO)cc1 [UM0142081:01, Fingolimod (FTY720)]
53 | 10.72 | CNC(=O)c1cc(COc2nnc(Nc3ccc(Cl)cc3)c3ccoc23)ccn1 [UM0142083:01, Telatinib (BAY 57-9352)]
54 | 29.78 | CC(C)n1nc(-c2ccc3oc(N)nc3c2)c2c(N)ncnc21 [UM0142084:01, INK 128 (MLN0128)]
55 | 9.195 | O=C(O)c1cccc(-c2noc(-c3ccccc3F)n2)c1 [UM0142085:01, PTC124 (Ataluren)]
56 | 39.35 | Cc1cc(C)c(Nc2ccnc(Nc3ccc(C#N)cc3)n2)c(C)c1 [UM0142086:01, Dapivirine (TMC120)]
57 | 7.374 | COc1ncc(-c2ccc3nccc(-c4ccnnc4)c3c2)cc1NS(=O)(=O)c1ccc(F)cc1F [UM0142087:01, GSK2126458]
58 | 15.32 | CNC(=O)c1ccccc1Nc1nc(Nc2ccc(N3CCOCC3)cc2OC)ncc1Cl [UM0142088:01, TAE226 (NVP-TAE226)]
59 | 8.077 | CC[C@@H]1C(=O)N(C)c2cnc(Nc3ccc(C(=O)N[C@H]4CC[C@H](N5CCN(CC6CC6)CC5)CC4)cc3OC)nc2N1C(C)C [UM0142089:01, BI6727 (Volasertib)]
60 | 25.51 | CC(C)[C@H](CO)Nc1nc(Nc2ccc(C(=O)O)c(Cl)c2)c2ncn(C(C)C)c2n1 [UM0142090:01, Purvalanol B]
61 | 7.532 | C[C@H]1CO[C@@H]2Cn3cc(C(=O)NCc4ccc(F)cc4F)c(=O)c(O)c3C(=O)N12 [UM0142091:01, GSK744 (S/GSK1265744)]

Row | Compound | Inh (PKA) [%]
62 | O=c1[nH]c2ccc(Cl)cc2c(N[C@@H]2CN3CCC2CC3)c1-c1nc2ccccc2[nH]1 [UM0142025:01, CHIR-124] | 30.1
